{
  "source": "patent US10780090B2",
  "about": "“Heteroaryl compounds useful as inhibitors of SUMO activating enzyme” (Millennium Pharmaceuticals, Inc., priority 2014, dated 2020)",
  "biological_target": "recombinant human SAE enzyme (Homo sapiens (Human), UniProt Q9UBT2)",
  "sequence (Q9UBT2 whole entry)": "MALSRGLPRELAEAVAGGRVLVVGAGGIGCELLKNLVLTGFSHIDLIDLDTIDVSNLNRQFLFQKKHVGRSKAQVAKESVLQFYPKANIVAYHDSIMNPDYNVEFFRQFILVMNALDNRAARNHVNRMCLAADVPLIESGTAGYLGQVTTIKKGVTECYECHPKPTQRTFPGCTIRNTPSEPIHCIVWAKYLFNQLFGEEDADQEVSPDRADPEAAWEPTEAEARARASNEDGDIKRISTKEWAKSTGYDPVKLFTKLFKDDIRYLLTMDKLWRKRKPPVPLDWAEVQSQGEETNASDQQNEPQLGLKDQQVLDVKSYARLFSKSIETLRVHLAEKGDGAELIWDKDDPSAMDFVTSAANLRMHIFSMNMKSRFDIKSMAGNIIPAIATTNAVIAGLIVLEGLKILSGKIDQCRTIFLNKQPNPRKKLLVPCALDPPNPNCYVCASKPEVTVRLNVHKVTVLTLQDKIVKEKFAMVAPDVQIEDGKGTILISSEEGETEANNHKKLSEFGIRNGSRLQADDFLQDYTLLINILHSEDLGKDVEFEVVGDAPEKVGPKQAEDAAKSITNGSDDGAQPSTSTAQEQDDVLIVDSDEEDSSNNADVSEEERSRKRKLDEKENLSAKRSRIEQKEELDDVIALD",
  "sequence (Q9UBE0 whole entry partner)": "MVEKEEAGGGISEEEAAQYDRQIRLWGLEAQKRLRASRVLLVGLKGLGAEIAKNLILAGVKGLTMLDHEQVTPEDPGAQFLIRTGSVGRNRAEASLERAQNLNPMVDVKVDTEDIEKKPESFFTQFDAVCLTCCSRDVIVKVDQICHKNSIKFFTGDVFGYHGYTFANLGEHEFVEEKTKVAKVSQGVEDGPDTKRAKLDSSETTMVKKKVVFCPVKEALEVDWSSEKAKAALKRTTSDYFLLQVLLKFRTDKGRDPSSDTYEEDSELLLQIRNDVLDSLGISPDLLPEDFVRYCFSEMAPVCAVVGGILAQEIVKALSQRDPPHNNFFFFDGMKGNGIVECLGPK",
  "experiment": "SAE HTRF enzyme assay",
  "type": "biochemical",
  "conditions": "for inhibition at 0.111 µM: read-out: Percent Inhibition",
  "method_in_brief": "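First, recombinant human SAE (0.11 nM) transfers Sumo-Flag onto Ubc9-GST using 0.5 μM ATP for 105 min at 24° C. Next, EDTA-containing detection buffer with labelled anti-Flag and anti-GST antibodies is added for 2 h. Finally, FRET is quantified and percent inhibition or IC50 derived.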",
  "key": {"[1]": {"conditions": "SAE inhibition at compound concentration 0.111 μM"}, "[2]": {"conditions": "SAE inhibition, class symbols, legend in nM"}},
  "data": [
    {"molecule": "Cc1sc(C(=O)c2cncnc2N[C@@H]2C[C@H](COS(N)(=O)=O)[C@@H](O)C2)cc1[S@+]([O-])c1cccc(Cl)c1.Cc1sc(C(=O)c2cncnc2N[C@@H]2C[C@H](COS(N)(=O)=O)[C@@H](O)C2)cc1[S@@+]([O-])c1cccc(Cl)c1", "note": "(mixture of isomers) [I-28, [(1R,2S,4R)-4-{[5-({4-[(R)-(3-chlorophenyl)sulfinyl]-5-methyl-2-thienyl}carbonyl)pyrimidin-4-yl]amino}-2-hydroxycyclopentyl]methyl sulfamate and [(1R,2S,4R)-4-{[5-({4-[(S)-(3-chlorophenyl)sulfinyl]-5-methyl-2-thienyl}carbonyl)pyrimidin-4-yl]amino}-2-hydroxycyclopentyl]methyl sulfamate]", "values": [
      {"measurement": "Percent Inhibition", "setting": "Concentration 0.111 μM", "value": 98},
      {"measurement": "IC50", "setting": "class symbols A/B/C", "value": "< 10", "unit": "nM"}
    ]},
    {"molecule": "CC(O)(c1cccc(Br)c1)c1csc(C(=O)c2cncnc2N[C@@H]2C[C@H](COS(N)(=O)=O)[C@@H](O)C2)c1", "note": "(single isomer, unassigned) [I-3a, [(1R,2S,4R)-4-{[5-({4-[(1R)-1-(3-bromophenyl)-1-hydroxyethyl]-2-thienyl}carbonyl)pyrimidin-4-yl]amino}-2-hydroxycyclopentyl]methyl sulfamate or [(1R,2S,4R)-4-{[5-({4-[(1S)-1-(3-bromophenyl)-1-hydroxyethyl]-2-thienyl}carbonyl)pyrimidin-4-yl]amino}-2-hydroxycyclopentyl]methyl sulfamate]", "values": [
      {"measurement": "Percent Inhibition", "setting": "Concentration 0.111 μM", "value": 92},
      {"measurement": "IC50", "setting": "class symbols A/B/C", "value": "10 to 100", "unit": "nM"}
    ]},
    {"molecule": "NS(=O)(=O)OC[C@H]1C[C@@H](Nc2ncncc2C(=O)c2cc(Cn3cnc(Br)c3)cs2)C[C@@H]1O", "note": "[I-243, [(1R,2S,4R)-4-{[5-({4-[(4-bromo-1H-imidazol-1-yl)methyl]-2-thienyl}carbonyl)pyrimidin-4-yl]amino}-2-hydroxycyclopentyl]methyl sulfamate]", "values": [
      {"measurement": "inhibition at 0.111 µM", "setting": "Concentration 0.111 μM", "value": 19, "unit": "%"},
      {"measurement": "IC50", "setting": "class symbols A/B/C", "value": "100 to 1000", "unit": "nM"}
    ]},
    {"molecule": "NS(=O)(=O)OC[C@H]1C[C@@H](Nc2ncncc2C(=O)c2cc([C@@H]3OCCc4ccc(Cl)cc43)c(C(F)F)s2)C[C@@H]1O", "note": "[I-361, (1R,2S,4R)-4-[[5-[4-[(R)-7-chloroisochroman-1-yl]-5-(difluoromethyl)thiophene-2-carbonyl]pyrimidin-4-yl]amino]-2-hydroxy-cyclopentyl]methyl sulfamate and (1R,2S,4R)-4-[[5-[4-[(1S)-7-chloroisochroman-1-yl]-5-(difluoromethyl)thiophene-2-carbonyl]pyrimidin-4-yl]amino}-2-hydroxy-cyclopentyl]methyl sulfamate]", "values": [
      {"measurement": "Percent Inhibition", "setting": "[1]", "value": 95, "unit": "%"},
      {"measurement": "IC50", "setting": "[2]", "value": "< 10", "unit": "nM"}
    ]},
    {"molecule": "N[C@H](c1cccc(Br)c1)c1cc(C(=O)c2cncnc2N[C@@H]2C[C@H](COS(N)(=O)=O)[C@@H](O)C2)sc1Cl", "note": "(single isomer, unassigned) [I-22a, [(1R,2S,4R)-4-{[5-({4-[(R)-amino(3-bromophenyl)methyl]-5-chloro-2-thienyl}carbonyl)pyrimidin-4-yl]amino}-2-hydroxycyclopentyl]methyl sulfamate or [(1R,2S,4R)-4-{[5-({4-[(S)-amino(3-bromophenyl)methyl]-5-chloro-2-thienyl}carbonyl)pyrimidin-4-yl]amino}-2-hydroxycyclopentyl]methyl sulfamate]", "values": [
      {"measurement": "Percent Inhibition", "setting": "Concentration 0.111 μM", "value": 83},
      {"measurement": "IC50", "setting": "class symbols A/B/C", "value": "10 to 100", "unit": "nM"}
    ]},
    {"molecule": "NS(=O)(=O)OC[C@H]1C[C@@H](Nc2ncncc2C(=O)c2cc([C@@H]3CCc4ccc(Cl)cc43)cs2)C[C@@H]1O", "note": "(single isomer, unassigned) [I-349a, [(1R,2S,4R)-4-{[5-({4-[(1R)-6-chloro-2,3-dihydro-1H-inden-1-yl]-2-thienyl}carbonyl)pyrimidin-4-yl]amino}-2-hydroxycyclopentyl]methyl sulfamate or [(1R,2S,4R)-4-{[5-({4-[(1S)-6-chloro-2,3-dihydro-1H-inden-1-yl]-2-thienyl}carbonyl)pyrimidin-4-yl]amino}-2-hydroxycyclopentyl]methyl sulfamate]", "values": [
      {"measurement": "Percent Inhibition", "setting": "[1]", "value": 42, "unit": "%"},
      {"measurement": "IC50", "setting": "[2]", "value": "100 to 1000", "unit": "nM"}
    ]},
    {"molecule": "NS(=O)(=O)OC[C@H]1C[C@@H](Nc2ncncc2C(=O)c2cc([C@@H]3NCCc4ccc(Br)cc43)c(Cl)s2)[C@H](O)[C@@H]1O", "note": "(single isomer, unassigned) [I-259a, [(1R,2R,3S,4R)-4-{[5-({4-[(1R)-7-bromo-1,2,3,4-tetrahydroisoquinolin-1-yl]-5-chloro-2-thienyl}carbonyl)pyrimidin-4-yl]amino}-2,3-dihydroxycyclopentyl]methyl sulfamate or [(1R,2R,3S,4R)-4-{[5-({4-[(1S)-7-bromo-1,2,3,4-tetrahydroisoquinolin-1-yl]-5-chloro-2-thienyl}carbonyl)pyrimidin-4-yl]amino}-2,3-dihydroxycyclopentyl]methyl sulfamate]", "values": [
      {"measurement": "Percent Inhibition", "setting": "Concentration 0.111 μM", "value": 100},
      {"measurement": "IC50", "setting": "class symbols A/B/C", "value": "< 10", "unit": "nM"}
    ]},
    {"molecule": "NS(=O)(=O)OC[C@H]1C[C@@H](Nc2ncncc2C(=O)c2cc(C(O)c3cccc(Cl)n3)cs2)C[C@@H]1O", "note": "(single isomer, unassigned) [I-29b, [(1R,2S,4R)-4-{[5-({4-[(S)-(6-chloropyridin-2-yl)(hydroxy)methyl]-2-thienyl}carbonyl)pyrimidin-4-yl]amino}-2-hydroxycyclopentyl]methyl sulfamate or [(1R,2S,4R)-4-{[5-({4-[(R)-(6-chloropyridin-2-yl)(hydroxy)methyl]-2-thienyl}carbonyl)pyrimidin-4-yl]amino}-2-hydroxycyclopentyl]methyl sulfamate]", "values": [
      {"measurement": "Percent Inhibition", "setting": "Concentration 0.111 μM", "value": 99},
      {"measurement": "IC50", "setting": "class symbols A/B/C", "value": "< 10", "unit": "nM"}
    ]},
    {"molecule": "Cc1sc(C(=O)c2cncnc2N[C@@H]2C[C@H](COS(N)(=O)=O)[C@@H](O)C2)cc1Sc1cccc(Cl)c1", "note": "[I-143, [(1R,2S,4R)-4-{[5-({4-[(3-chlorophenyl)sulfanyl]-5-methyl-2-thienyl}carbonyl)pyrimidin-4-yl]amino}-2-hydroxycyclopentyl]methyl sulfamate]", "values": [
      {"measurement": "inhibition at 0.111 µM", "setting": "Concentration 0.111 μM", "value": 94, "unit": "%"},
      {"measurement": "IC50", "setting": "class symbols A/B/C", "value": "< 10", "unit": "nM"}
    ]},
    {"molecule": "Cc1ccc2c(n1)C(c1cc(C(=O)c3cncnc3N[C@@H]3C[C@H](COS(N)(=O)=O)[C@@H](O)C3)sc1C)OCC2", "note": "(single isomer, unassigned) [I-291b, [(1R,2S,4R)-2-hydroxy-4-{[5-({5-methyl-4-[(8S)-2-methyl-5,8-dihydro-6H-pyrano[3,4-b]pyridin-8-yl]-2-thienyl}carbonyl)pyrimidin-4-yl]amino}cyclopentyl]methyl sulfamate or [(1R,2S,4R)-2-hydroxy-4-{[5-({5-methyl-4-[(8R)-2-methyl-5,8-dihydro-6H-pyrano[3,4-b]pyridin-8-yl]-2-thienyl}carbonyl)pyrimidin-4-yl]amino}cyclopentyl]methyl sulfamate]", "values": [
      {"measurement": "Percent Inhibition", "setting": "[1]", "value": 99, "unit": "%"},
      {"measurement": "IC50", "setting": "[2]", "value": "< 10", "unit": "nM"}
    ]},
    {"molecule": "Cc1nc2c(s1)CCO[C@H]2c1cc(C(=O)c2cncnc2N[C@@H]2C[C@H](COS(N)(=O)=O)[C@@H](O)C2)sc1C", "note": "(mixture of isomers) [I-287, [(1R,2S,4R)-2-hydroxy-4-{[5-({5-methyl-4-[(4S)-2-methyl-6,7-dihydro-4H-pyrano[3,4-d][1,3]thiazol-4-yl]-2-thienyl}carbonyl)pyrimidin-4-yl]amino}cyclopentyl]methyl sulfamate and [(1R,2S,4R)-2-hydroxy-4-{[5-({5-methyl-4-[(4R)-2-methyl-6,7-dihydro-4H-pyrano[3,4-d][1,3]thiazol-4-yl]-2-thienyl}carbonyl)pyrimidin-4-yl]amino}cyclopentyl]methyl sulfamate]", "values": [
      {"measurement": "Percent Inhibition", "setting": "[1]", "value": 97, "unit": "%"},
      {"measurement": "IC50", "setting": "[2]", "value": "< 10", "unit": "nM"}
    ]},
    {"molecule": "{(1R,2S,4R)-4-[(5-{5-chloro-4-[(1R)-7-chloro-1,2,3,4-tetrahydroisoquinolin-1-yl]-2- [I-299]", "values": [
      {"measurement": "Percent Inhibition", "setting": "[1]", "value": 98, "unit": "%"},
      {"measurement": "IC50", "setting": "[2]", "value": "< 10", "unit": "nM"}
    ]},
    {"molecule": "NS(=O)(=O)OC[C@H]1C[C@@H](Nc2ncncc2C(=O)c2cc(Cn3ccc4ccncc43)cs2)C[C@@H]1O", "note": "[I-186, {(1R,2S,4R)-2-hydroxy-4-[(5-{[4-(1H-pyrrolo[2,3-c]pyridin-1-ylmethyl)-2-thienyl]carbonyl}pyrimidin-4-yl)amino]cyclopentyl}methyl sulfamate]", "values": [
      {"measurement": "inhibition at 0.111 µM", "setting": "Concentration 0.111 μM", "value": 83, "unit": "%"},
      {"measurement": "IC50", "setting": "class symbols A/B/C", "value": "10 to 100", "unit": "nM"}
    ]},
    {"molecule": "NS(=O)(=O)OC[C@H]1C[C@@H](Nc2ncncc2C(=O)c2cc([C@H]3OCC4(CC4)c4ccccc43)cs2)C[C@@H]1O", "note": "(mixture of isomers) [I-281, [(1R,2S,4R)-2-hydroxy-4-{[5-({4-[(1′R)-1′H-spiro[cyclopropane-1,4′-isochromen]-1′-yl]-2-thienyl}carbonyl)pyrimidin-4-yl]amino}cyclopentyl]methyl sulfamate and [(1R,2S,4R)-2-hydroxy-4-{[5-({4-[(1′S)-1′H-spiro[cyclopropane-1,4′-isochromen]-1′-yl]-2-thienyl}carbonyl)pyrimidin-4-yl]amino}cyclopentyl]methyl sulfamate]", "values": [
      {"measurement": "Percent Inhibition", "setting": "[1]", "value": 98, "unit": "%"},
      {"measurement": "IC50", "setting": "[2]", "value": "< 10", "unit": "nM"}
    ]},
    {"molecule": "NS(=O)(=O)OC[C@H]1C[C@@H](Nc2ncncc2C(=O)c2ccc(S(=O)(=O)c3ccccc3)o2)C[C@@H]1O", "note": "[I-239, [(1R,2S,4R)-2-Hydroxy-4-(5-[5-(phenylsulfonyl)-2-furoyl]pyrimidin-4-yl}amino)cyclopentyl]methyl sulfamate]", "values": [
      {"measurement": "Percent Inhibition", "setting": "Concentration 0.111 μM", "value": 14},
      {"measurement": "IC50", "setting": "class symbols A/B/C", "value": "100 to 1000", "unit": "nM"}
    ]},
    {"molecule": "NS(=O)(=O)OC[C@H]1C[C@@H](Nc2ncncc2C(=O)c2cc([C@@H]3OCCc4ccc(F)cc43)cs2)C[C@@H]1O", "note": "(single isomer, unassigned) [I-267b, [(1R,2S,4R)-4-{[5-({4-[(1R)-7-fluoro-3,4-dihydro-1H-isochromen-1-yl]-2-thienyl}carbonyl)pyrimidin-4-yl]amino}-2-hydroxycyclopentyl]methyl sulfamate or [(1R,2S,4R)-4-{[5-({4-[(1S)-7-fluoro-3,4-dihydro-1H-isochromen-1-yl]-2-thienyl}carbonyl)pyrimidin-4-yl]amino}-2-hydroxycyclopentyl]methyl sulfamate]", "values": [
      {"measurement": "Percent Inhibition", "setting": "Concentration 0.111 μM", "value": 100},
      {"measurement": "IC50", "setting": "class symbols A/B/C", "value": "< 10", "unit": "nM"}
    ]}
  ]
}
